The results in this text go back to patent US20150051242A1, “RAFAMYCIN ANALOGS AND METHODS FOR MAKING SAME” (HANGZHOU ZYLOX PHARMA CO., LTD, priority 2012, published 2015).

The subject of the first experiment is HCT-116 human colon cancer.
Test: not given
The conditions noted are these: 9 mg/kg/day p.o., after 22 days treatment, compared to vehicle control.
As for `CO[C@H]1C[C@@H]2CC[C@@H](C)[C@@](O)(O2)C(=O)C(=O)N2CCCC[C@H]2C(=O)O[C@H]([C@H](C)C[C@@H]2CC[C@@H](OCCO)[C@H](OC)C2)CC(=O)[C@H](C)/C=C(\C)[C@@H](O)[C@@H](OC)C(=O)[C@H](C)C[C@H](C)/C=C/C=C/C=C/1C` [Compound A15, reference compound], the tumor growth inhibition stood at 63%.

The target in the next experiment is T1, mTOR (Homo sapiens, UniProt P42345+P62942).
T1 construct: purchased Invitrogen (mTOR); SinoBiological (FKBP12) PV4753 (mTOR); 10268-H08E (FKBP12)
T1 sequence (P42345 1360-2549 limits assumed): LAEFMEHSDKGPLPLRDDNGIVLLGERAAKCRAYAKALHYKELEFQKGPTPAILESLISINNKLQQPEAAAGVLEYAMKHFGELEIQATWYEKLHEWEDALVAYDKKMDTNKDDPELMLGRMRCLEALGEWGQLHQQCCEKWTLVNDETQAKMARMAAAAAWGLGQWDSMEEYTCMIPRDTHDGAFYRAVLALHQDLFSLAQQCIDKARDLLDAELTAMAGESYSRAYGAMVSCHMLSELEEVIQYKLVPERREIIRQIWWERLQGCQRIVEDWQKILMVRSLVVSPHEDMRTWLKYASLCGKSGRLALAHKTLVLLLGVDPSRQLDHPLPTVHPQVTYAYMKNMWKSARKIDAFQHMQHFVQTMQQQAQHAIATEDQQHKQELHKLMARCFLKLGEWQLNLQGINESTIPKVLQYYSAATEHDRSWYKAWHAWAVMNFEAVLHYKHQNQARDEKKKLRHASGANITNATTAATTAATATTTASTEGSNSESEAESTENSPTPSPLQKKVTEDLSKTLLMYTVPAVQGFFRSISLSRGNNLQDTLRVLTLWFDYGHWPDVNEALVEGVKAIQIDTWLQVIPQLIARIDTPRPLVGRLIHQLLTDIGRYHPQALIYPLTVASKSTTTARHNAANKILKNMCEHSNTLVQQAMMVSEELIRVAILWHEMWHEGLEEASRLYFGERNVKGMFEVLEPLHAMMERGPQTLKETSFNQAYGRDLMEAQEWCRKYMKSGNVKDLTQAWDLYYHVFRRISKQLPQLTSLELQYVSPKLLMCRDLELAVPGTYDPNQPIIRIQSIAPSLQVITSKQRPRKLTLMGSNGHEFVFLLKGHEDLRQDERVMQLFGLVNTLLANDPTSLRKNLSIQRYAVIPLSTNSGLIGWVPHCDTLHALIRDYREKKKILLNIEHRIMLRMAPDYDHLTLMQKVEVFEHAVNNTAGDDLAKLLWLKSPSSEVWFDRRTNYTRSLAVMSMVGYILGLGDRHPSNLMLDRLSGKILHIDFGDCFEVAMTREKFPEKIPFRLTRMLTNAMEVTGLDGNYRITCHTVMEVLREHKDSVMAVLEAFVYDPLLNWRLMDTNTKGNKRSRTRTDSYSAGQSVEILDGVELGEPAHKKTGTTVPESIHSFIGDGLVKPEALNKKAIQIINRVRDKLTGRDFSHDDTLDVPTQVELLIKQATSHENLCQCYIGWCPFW
T1 sequence (P62942 whole entry): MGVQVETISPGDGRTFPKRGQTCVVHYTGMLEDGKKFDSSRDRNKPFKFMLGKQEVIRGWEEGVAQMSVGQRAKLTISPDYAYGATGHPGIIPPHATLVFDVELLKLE
In words: mTOR TR-FRET kinase assay (phosphorylation of GFP-4E-BP1). In kind it is biochemical. To be noted: 10 μM ATP, 0.4 μM GFP-4E-BP1, read-out: IC50 mTOR inhibition. The source says:
Now we use a Terbium labeled anti-phosphorylated 4E--BP1 antibody to detect phosphorylation of the GFP-labeled substrate by mTOR. This TR-FRET based assay can be used to screen inhibitors of mTOR in vitro.
Materials: Assay buffer components: 1M HEPES pH7.5, GIBCO, Cat#15630: 1M MgCl2, Sigma, Cat# M1028: 0.5M EDTA, GIBCO, Cat# 15575: DTT, Sigma Cat# 43819: EGTA, Sigma Cat# E3889; Triton X100, Sigma, Cat# T8787: USA CALBIOCHEM Cat# 126575.
Enzyme, substrate and detection reagents: mTOR: Invitrogen, Cat# PV4753: GFP-4E-BPI: Invitrogen, Cat# PV4759: FKBP12: SinoBiological, Cat# 10268-H08E: ATP: Sigma Cat# A26209: Tb-anti-p4E-BP1: Invitrogen, Cat# PV4755: TR-FRET Dilution buffer Invitrogen, Cat# PV3574.
Plate: Compounds preparation plate: 384-well, Corning cat# 3657: Assay plate: black low volume 384 well microtiter plate (Greiner Bio-One, Cat# 784076).
Procedure: Compounds dosage gradient solution preparation:
Compounds were 3-fold serial diluted in 100% DMSO in a microtiter plate (Corning 3674) at 11 different concentrations in the range of 100 μM to 1.7 nM (100 μM, 33 μM, 11 μM, 3.7 μM, 1.2 μM, 411 nM, 137 nM, 46 nM, 15 nM, 5 nM, 1.7 nM). Then the diluted compounds in 100% DMSO was 10-fold diluted with ddH2O, so the compounds were in 10% DMSO.
0.5 μl diluted compounds in 10% DMSO was pipetted into a black low volume 384 well microtiter plate (Greiner Bio-One, Frickenhausen, Germany, cat# 784076): 2 μl of a solution of mTOR in aqueous assay buffer |50 mM HEPES/NaOH pH 7.5. mM MgCl12, 1.0 mM dithiothreitol, 1 mM EGTA, 0.01% (v/v) Triton-X100 (Sigma), 0.01% (w/v| bovine serum albumine (BSA)| (mTOR, 0.3125 ng/μl=>final cone, in the 5 μl assay volume is 0.125 ng/μl) were added to the assay plate and the compound-enzyme mixture was incubated for 15 min at 22° C. to allow pre-binding of the test compounds to the enzyme before the start of the kinase reaction:
The kinase reaction was started by the addition of 2.5 μl of a solution of ATP (ATP, […]=>final conc., in the 5 μl assay volume is 10 μM) and substrate (0.8 μM=>final conc. in the 5 μl assay volume is 0.4 μM) in assay buffer and the resulting mixture was incubated for 18 min at 22° C.
The reaction was stopped by the addition of 5 ul of 30 mM EDTA (EDTA, 30 mM=> final cone, in the 10 ∥l assay volume is 15 mM) and 4 nM Tb-chelate labeled anti-4E-BP1 |pT46| phosphospecific antibody |Invitrogen Cat# PV4755| (Tb-labeled antibody, 4 nM=>final conc. in the 10 μl assay volume is 2 nM) in TR-FRET dilution buffer, the resulting mixture was incubated 1 hour at 22° C. to allow the formation of complex of the phosphorylated substrate and the Tb-chelate labeled antibody.
The amount of phosphorylated substrate was evaluated by measurement of the resonance energy transfer from the Tb-chelate to the GFP. Therefore, the fluorescence emission at 495 nmn and 520 nm after excitation at 340 nm was measured on envision 2104 multilabel reader (Perkin-Elmer). The ratio of the emission at 520 nm and at 495 nm was taken as the measure for the amount of phosphorylated substrate. The data were normalised (enzyme reaction without inhibitor=0% inhibition, all other assay components but no enzyme=100% inhibition) and IC50 values were calculated by a 4 parameter fit (equation (1)) using IDBS XLfit software (ID Business Solutions Ltd., UK)
Y=Bottom+(TOP−Bottom)/(1+10̂((LogIC50−X)*hillslope)) equation (1)
In this equation, Y was the normalized % inhibition value. X was the log value of the test compound concentration. IC50 was the concentration of compound where half of maximal inhibition was achieved.
As to `CO[C@H]1C[C@@H]2CC[C@@H](C)[C@@](O)(O2)C(=O)C(=O)N2CCCC[C@H]2C(=O)O[C@H]([C@H](C)C[C@@H]2CC[C@@H](OCCO)[C@H](OC)C2)CC(=O)[C@H](C)/C=C(\C)[C@@H](O)[C@@H](OC)C(=O)[C@H](C)C[C@H](C)/C=C/C=C/C=C/1C` [Compound A15, reference compound], the IC50 (commonly the point on the concentration scale where inhibition reaches its midpoint) turned out to be 6.43 nM. The same measure, in the same setting: with `CO[C@H]1C[C@@H]2CC[C@@H](C)[C@@](O)(O2)C(=O)C(=O)N2CCCC[C@H]2C(=O)O[C@H]([C@H](C)C[C@@H]2CC[C@H](n3cc(-c4ccc(S(N)(=O)=O)cc4)nn3)[C@H](OC)C2)CC(=O)[C@H](C)/C=C(\C)[C@@H](O)[C@@H](OC)C(=O)[C@H](C)C[C@H](C)/C=C/C=C/C=C/1C` [Compound B13] the figure was 29 nM; with `CO[C@H]1C[C@@H]2CC[C@@H](C)[C@@](O)(O2)C(=O)C(=O)N2CCCC[C@H]2C(=O)O[C@H]([C@H](C)C[C@@H]2CC[C@H](n3cc(COc4ccc(S(N)(=O)=O)cc4)nn3)[C@H](OC)C2)CC(=O)[C@H](C)/C=C(\C)[C@@H](O)[C@@H](OC)C(=O)[C@H](C)C[C@H](C)/C=C/C=C/C=C/1C` [Compound B12], 35.2 nM.

`CO[C@H]1C[C@@H]2CC[C@@H](C)[C@@](O)(O2)C(=O)C(=O)N2CCCC[C@H]2C(=O)O[C@H]([C@H](C)C[C@@H]2CC[C@H](n3cc(-c4ccc(C(=O)O)cc4)nn3)[C@H](OC)C2)CC(=O)[C@H](C)/C=C(\C)[C@@H](O)[C@@H](OC)C(=O)[C@H](C)C[C@H](C)/C=C/C=C/C=C/1C` [Compound B11]: the IC50 was determined as 446 nM. The same measure, in the same setting: the result for `CO[C@H]1C[C@@H]2CC[C@@H](C)[C@@](O)(O2)C(=O)C(=O)N2CCCC[C@H]2C(=O)O[C@H]([C@H](C)C[C@@H]2CC[C@@H](OCc3cn(-c4ccc(N5CCN(C)CC5)cc4)nn3)[C@H](OC)C2)CC(=O)[C@H](C)/C=C(\C)[C@@H](O)[C@@H](OC)C(=O)[C@H](C)C[C@H](C)/C=C/C=C/C=C/1C` [Compound A13] reads greater than 10000 nM; that for `CO[C@H]1C[C@@H]2CC[C@@H](C)[C@@](O)(O2)C(=O)C(=O)N2CCCC[C@H]2C(=O)O[C@H]([C@H](C)C[C@@H]2CC[C@@H](OCc3c[nH]nn3)[C@H](OC)C2)CC(=O)[C@H](C)/C=C(\C)[C@@H](O)[C@@H](OC)C(=O)[C@H](C)C[C@H](C)/C=C/C=C/C=C/1C` [Compound A6], 9140 nM; that for `CO[C@H]1C[C@@H]2CC[C@@H](C)[C@@](O)(O2)C(=O)C(=O)N2CCCC[C@H]2C(=O)O[C@H]([C@H](C)C[C@@H]2CC[C@@H](OCc3cn(CC(=O)O)nn3)[C@H](OC)C2)CC(=O)[C@H](C)/C=C(\C)[C@@H](O)[C@@H](OC)C(=O)[C@H](C)C[C@H](C)/C=C/C=C/C=C/1C` [Compound A12], greater than 10000 nM. The same measure, in the same setting: the result for `COC1CC2CCC(C)C(O)(O2)C(=O)C(=O)N2CCCCC2C(=O)OC(C(C)CC2CCC(OCc3cn(CCO)nn3)C(OC)C2)CC(=O)C(C)C=C(C)C(O)C(OC)C(=O)C(C)CC(C)C=CC=CC=C1C` (centres unmarked) [Compound A9] reads greater than 10000 nM; that for `CO[C@H]1C[C@@H]2CC[C@@H](C)[C@@](O)(O2)C(=O)C(=O)N2CCCC[C@H]2C(=O)O[C@H]([C@H](C)C[C@@H]2CC[C@@H](OCc3cn(-c4ccc(C(=O)O)cc4)nn3)[C@H](OC)C2)CC(=O)[C@H](C)/C=C(\C)[C@@H](O)[C@@H](OC)C(=O)[C@H](C)C[C@H](C)/C=C/C=C/C=C/1C` [Compound A4], 6600 nM. `COC1CC2CCC(C)C(O)(O2)C(=O)C(=O)N2CCCCC2C(=O)OC(C(C)CC2CCC(OCc3cn(Cc4ccc(F)cc4)nn3)C(OC)C2)CC(=O)C(C)C=C(C)C(O)C(OC)C(=O)C(C)CC(C)C=CC=CC=C1C` (centres unmarked) [Compound A14]: the concentration for half-maximal inhibition (IC50) was greater than 10000 nM. On the same count and under the same terms, the result for `CO[C@H]1C[C@@H]2CC[C@@H](C)[C@@](O)(O2)C(=O)C(=O)N2CCCC[C@H]2C(=O)O[C@H]([C@H](C)C[C@@H]2CC[C@H](n3cc(-c4cccnc4)nn3)[C@H](OC)C2)CC(=O)[C@H](C)/C=C(\C)[C@@H](O)[C@@H](OC)C(=O)[C@H](C)C[C@H](C)/C=C/C=C/C=C/1C` [Compound B9] reads 27.2 nM; that for `CO[C@H]1C[C@@H]2CC[C@@H](C)[C@@](O)(O2)C(=O)C(=O)N2CCCC[C@H]2C(=O)O[C@H]([C@H](C)C[C@@H]2CC[C@H](n3cc(CO)nn3)[C@H](OC)C2)CC(=O)[C@H](C)/C=C(\C)[C@@H](O)[C@@H](OC)C(=O)[C@H](C)C[C@H](C)/C=C/C=C/C=C/1C` [Compound B2], 18.4 nM. The same measure, in the same setting: the result for `CO[C@H]1C[C@@H]2CC[C@@H](C)[C@@](O)(O2)C(=O)C(=O)N2CCCC[C@H]2C(=O)O[C@H]([C@H](C)C[C@@H]2CC[C@@H](OCc3cn(C45CC6CC(CC(C6)C4)C5)nn3)[C@H](OC)C2)CC(=O)[C@H](C)/C=C(\C)[C@@H](O)[C@@H](OC)C(=O)[C@H](C)C[C@H](C)/C=C/C=C/C=C/1C` [Compound A3] reads greater than 10000 nM.
